Results from paper PMC12749748, “Chemically-induced degradation of the endoplasmic-reticulum stress sensor IRE1 by a VHL-recruiting chimera” (Nature Communications, 2025).

Columns and labels:
Format in all cases: cell-based
[1] = molecular target: T1, IRE1 H579A:VHL (Homo sapiens, UniProt O75460+P40337, H579A); assay: NanoBRET IRE1:VHL interaction, IRE1 H579A, HEK293T cells
T1 construct: N2731; host or cells: HEK293T
Experimental: (§1) 8 × 10^5 293T cells per well were seeded in 6-well plates (Costar, #3516) and incubated at 37 °C, 5% CO2 for 6 h. A mixture of 0.2 µg ERN1 (IRE1)-NanoLuc Fusion Vector (Promega, NV1321), 2 µg HaloTag-VHL Fusion Vector (Promega, N2731), 6 µl FuGENE HD Transfection Reagent (Promega, E2311), and 100 µL Opti-MEM I reduced serum medium (Gibco, #31985062) per well was incubated at room temperature for 20 min before adding to cells. For expression of IRE1 mutants, site-directed mutagenesis was performed using the ERN1-NanoLuc Fusion Vector as the DNA template, and the transfection mixture was prepared in the same way as WT IRE1. After 18 h, cells from 6-well plates were trypsinized, resuspended in Opti-MEM I reduced serum medium, and reseeded into 96-well plates (Costar, #3917), with or without the addition of HaloTag NanoBRET 618 Ligand (Promega, G9801). After 18 h of incubation, a titration of G6374 (dilutions made in Opti-MEM I reduced serum medium) was added to the cells. After 2 h of G6374 treatment, NanoBRET Nano-Glo Substrate (Promega, N1571) was added to cells. The 96-well plates were imaged by GloMax Discover Microplate Reader (Promega, GM3000) with the default “BRET: NanoBRET 618” protocol (Donor: 450 BP; Acceptor: 600 LP; Integration: 0.3 s). Data analysis was performed according to the user manual.

[2] = molecular target: T2, IRE1 E621A, E836A (Homo sapiens, UniProt O75460+P40337, E621A/E836A); assay: NanoLuc signal IRE1 depletion, IRE1 E621A, E836A, HEK293T cells; conditions: E836A double mutant
T2 construct: N2731; host or cells: HEK293T
Experimental: as §1

[3] = tested on: OPM2 cells; assay: Incucyte cell confluency, OPM2 cells; conditions: OPM2 shIRE1 cells, titration
Experimental: (§2) For non-adherent AMO1, KMS27, and OPM2 cells, cells were plated at 5000 cells/well in ultra-low attachment (ULA) 96-well plates (Costar, #7007) and centrifuged at 600 × g for 5 min for spheroid formation. For adherent U2OS and Colo201 cells, 2000 cells/well were seeded in a clear flat-bottom 96-well plate (Costar, #3595). Treatments were added at the time of cell seeding, and cells were cultured in complete RPMI media to a final volume of 200 µL/well. Cultures were maintained at 37 °C throughout the duration of the experiment. Cell confluency was tracked using the Incucyte live-cell imaging system (Sartorius S3). Picture frames were captured every 4 h with a 4× objective, and cell confluency (%) from the total well area as a function of time was calculated using the Incucyte software (version 2023 A Rev2).

[4] = tested on: U2OS cells; assay: Incucyte cell confluency, U2OS cells; conditions: U2OS shIRE1 cells, titration
Experimental: as §2

[5] = molecular target: IRE1:VHL (Homo sapiens, UniProt O75460+P40337); assay: NanoBRET IRE1:VHL interaction, WT IRE1, HEK293T cells; design: N2731 (HaloTag-VHL); host or cells: HEK293T
Experimental: 8 × 10^5 293T cells per well were seeded in 6-well plates (Costar, #3516) and incubated at 37 °C, 5% CO2 for 6 h. A mixture of 0.2 µg ERN1 (IRE1)-NanoLuc Fusion Vector (Promega, NV1321), 2 µg HaloTag-VHL Fusion Vector (Promega, N2731), 6 µl FuGENE HD Transfection Reagent (Promega, E2311), and 100 µL Opti-MEM I reduced serum medium (Gibco, #31985062) per well was incubated at room temperature for 20 min before adding to cells. For expression of IRE1 mutants, site-directed mutagenesis was performed using the ERN1-NanoLuc Fusion Vector as the DNA template, and the transfection mixture was prepared in the same way as WT IRE1. After 18 h, cells from 6-well plates were trypsinized, resuspended in Opti-MEM I reduced serum medium, and reseeded into 96-well plates (Costar, #3917), with or without the addition of HaloTag NanoBRET 618 Ligand (Promega, G9801). […] After 2 h of G6374 treatment, NanoBRET Nano-Glo Substrate (Promega, N1571) was added to cells. The 96-well plates were imaged by GloMax Discover Microplate Reader (Promega, GM3000) with the default “BRET: NanoBRET 618” protocol (Donor: 450 BP; Acceptor: 600 LP; Integration: 0.3 s). Data analysis was performed according to the user manual.

IRE1:VHL, sequence (O75460 19-977): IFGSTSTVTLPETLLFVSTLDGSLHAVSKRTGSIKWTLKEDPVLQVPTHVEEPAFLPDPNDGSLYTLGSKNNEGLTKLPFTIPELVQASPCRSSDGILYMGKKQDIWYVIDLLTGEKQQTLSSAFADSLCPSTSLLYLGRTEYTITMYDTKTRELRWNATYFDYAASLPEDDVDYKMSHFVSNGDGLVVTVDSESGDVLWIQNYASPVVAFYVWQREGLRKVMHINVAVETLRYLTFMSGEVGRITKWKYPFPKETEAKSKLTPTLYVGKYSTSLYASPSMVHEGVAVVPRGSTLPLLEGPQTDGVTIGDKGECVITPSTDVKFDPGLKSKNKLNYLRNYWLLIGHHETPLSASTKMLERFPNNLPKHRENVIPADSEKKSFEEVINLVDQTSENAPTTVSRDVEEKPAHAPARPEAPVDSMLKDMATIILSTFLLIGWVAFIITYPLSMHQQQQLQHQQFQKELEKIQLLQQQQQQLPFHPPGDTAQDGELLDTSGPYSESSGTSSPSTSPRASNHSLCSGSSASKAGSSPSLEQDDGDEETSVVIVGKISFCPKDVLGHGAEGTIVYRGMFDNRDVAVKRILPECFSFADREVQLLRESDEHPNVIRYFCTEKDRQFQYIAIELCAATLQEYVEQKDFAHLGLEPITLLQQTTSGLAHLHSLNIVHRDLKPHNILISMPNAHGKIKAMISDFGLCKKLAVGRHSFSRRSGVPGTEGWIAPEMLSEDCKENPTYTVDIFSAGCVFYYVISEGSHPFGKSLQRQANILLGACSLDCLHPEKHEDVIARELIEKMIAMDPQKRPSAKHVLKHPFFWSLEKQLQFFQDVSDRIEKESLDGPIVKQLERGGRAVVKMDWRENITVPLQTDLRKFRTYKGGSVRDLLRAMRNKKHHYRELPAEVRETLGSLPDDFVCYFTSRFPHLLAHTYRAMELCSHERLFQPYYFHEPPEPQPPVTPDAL
IRE1:VHL, sequence (P40337 whole entry, the tested form may be a part): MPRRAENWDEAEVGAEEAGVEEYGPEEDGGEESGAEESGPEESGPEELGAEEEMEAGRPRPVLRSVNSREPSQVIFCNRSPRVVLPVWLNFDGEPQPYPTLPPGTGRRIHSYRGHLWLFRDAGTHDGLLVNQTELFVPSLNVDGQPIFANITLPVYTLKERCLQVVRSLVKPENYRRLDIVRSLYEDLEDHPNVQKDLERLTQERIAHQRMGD
IRE1:VHL, sequence (Q15369 whole entry partner, the tested form may be a part): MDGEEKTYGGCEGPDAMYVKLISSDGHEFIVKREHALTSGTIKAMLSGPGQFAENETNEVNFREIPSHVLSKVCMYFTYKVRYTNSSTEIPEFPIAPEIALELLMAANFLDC
IRE1:VHL, sequence (Q15370 whole entry partner, the tested form may be a part): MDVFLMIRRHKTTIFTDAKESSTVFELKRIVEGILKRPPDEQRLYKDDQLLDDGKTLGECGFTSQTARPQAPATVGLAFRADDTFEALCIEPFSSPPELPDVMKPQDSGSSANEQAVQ
IRE1:VHL, sequence (Q13617 whole entry partner, the tested form may be a part): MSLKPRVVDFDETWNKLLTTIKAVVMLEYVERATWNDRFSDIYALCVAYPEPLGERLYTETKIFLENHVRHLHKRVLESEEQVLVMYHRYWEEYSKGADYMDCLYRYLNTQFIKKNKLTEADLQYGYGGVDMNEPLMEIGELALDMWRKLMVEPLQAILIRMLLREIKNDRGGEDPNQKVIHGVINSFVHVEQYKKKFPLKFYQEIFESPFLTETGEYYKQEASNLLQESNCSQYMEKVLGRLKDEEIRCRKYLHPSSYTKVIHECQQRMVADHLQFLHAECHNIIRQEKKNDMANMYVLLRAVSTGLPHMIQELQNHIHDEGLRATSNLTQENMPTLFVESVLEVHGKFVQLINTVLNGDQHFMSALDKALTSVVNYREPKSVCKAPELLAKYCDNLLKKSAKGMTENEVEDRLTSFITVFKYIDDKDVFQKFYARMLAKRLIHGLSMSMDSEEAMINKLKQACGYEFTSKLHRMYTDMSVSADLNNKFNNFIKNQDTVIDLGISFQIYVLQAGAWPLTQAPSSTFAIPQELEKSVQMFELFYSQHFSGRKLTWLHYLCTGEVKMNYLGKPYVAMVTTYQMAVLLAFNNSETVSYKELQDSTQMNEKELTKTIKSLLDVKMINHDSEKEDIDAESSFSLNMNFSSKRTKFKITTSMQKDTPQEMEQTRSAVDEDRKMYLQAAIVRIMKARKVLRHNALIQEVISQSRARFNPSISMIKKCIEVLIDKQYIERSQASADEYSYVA
IRE1:VHL, sequence (P62877 whole entry partner, the tested form may be a part): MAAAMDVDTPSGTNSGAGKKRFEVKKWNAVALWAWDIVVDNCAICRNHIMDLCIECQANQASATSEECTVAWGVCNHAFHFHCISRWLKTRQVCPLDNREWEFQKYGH
T2 sequence (O75460 19-977 E621A/E836A): as the sequence (O75460 19-977) above, with E603A, E818A counted along it
T2 sequence (P40337 whole entry): as the sequence (P40337 whole entry, the tested form may be a part) above
T2 sequence (Q15369 whole entry partner): as the sequence (Q15369 whole entry partner, the tested form may be a part) above
T2 sequence (Q15370 whole entry partner): as the sequence (Q15370 whole entry partner, the tested form may be a part) above
T2 sequence (Q13617 whole entry partner): as the sequence (Q13617 whole entry partner, the tested form may be a part) above
T2 sequence (P62877 whole entry partner): as the sequence (P62877 whole entry partner, the tested form may be a part) above
T1 sequence (O75460 19-977 H579A): as the sequence (O75460 19-977) above, with H561A counted along it
T1 sequence (Q13617 whole entry, further chain): as the sequence (Q13617 whole entry partner, the tested form may be a part) above
T1 sequence (Q15370 whole entry, further chain): as the sequence (Q15370 whole entry partner, the tested form may be a part) above
T1 sequence (P62877 whole entry, further chain): as the sequence (P62877 whole entry partner, the tested form may be a part) above
T1 sequence (P40337 whole entry): as the sequence (P40337 whole entry, the tested form may be a part) above
T1 sequence (Q15369 whole entry, further chain): as the sequence (Q15369 whole entry partner, the tested form may be a part) above

In the case of `Cc1ncsc1-c1ccc(CNC(=O)[C@@H]2C[C@@H](O)CN2C(=O)[C@@H](NC(=O)CCCCN2CCN([C@H]3CC[C@H](Nc4ncc5ccc(=O)n(C(C)C)c5n4)CC3)CC2)C(C)(C)C)cc1` [G6374], the EC50 [1] is reported as 450 ± 60 nM, the DC50 [2] is reported as 110 ± 30 nM and the Dmax ([2]; HEK-293T) is reported as 67%. The “growth inhibition (cell confluency)” value [3] was “concentration-dependent growth inhibition”, the “proliferation rate (cell confluency)” value [4] was “did not affect the proliferation rate” and the EC50 [5] was 110 ± 30 nM. The “EC50 of IRE1:VHL interaction (NanoBRET ratio)” value ([5]; WT IRE1, HEK293T, estimated) was 110 nM.
